This assay deals with TNF-α induced IL-6. Description: TNF-α-induced IL-6 production determined by IL-6 ELISA. In kind it is cell-based. The conditions noted are these: for activity at 10 µM / inhibition at 10 µM: Homo sapiens, 24 h; for % IL6 production compare to TNF stimulation of IL6 (100%), HAEC, IL6, @ 5 uM: compound 5 uM (bracketed value); for % IL6 production compare to TNF stimulation of IL6 (100%), Compds tested @ 10 μM HAEC, IL6: Table 7, 10 μM compound. As for the experimental part:
Human aortic endothelial cells (HAEC, Clonetics) were cultured according to manufacturer in growth medium (Clonetics): basal medium containing human epidermal growth factor, hydrocortisone, vascular endothelial growth factor, heparin binding growth factor-B, long R3-insulin-like growth factor-1, ascorbic acid, gentamicin/amphotericin and 5% FBS. These cell were allowed to reach at least 90% confluency before subjected to experimental treatments. […] Tumor necrosis factor α was from R&D Systems.
All treatments, compound-added and controls were carried out in serum free media containing 0.2% albumin. Media from all conditions were collected and used for IL-6 ELISA.
IL-6 ELISA was carried out using human IL-6 DuoSet ELISA development kit as described by manufacturer (R&D Systems). Mouse anti-human Il-6 was used as the capture antibody (2 ug/ml) and biotinylated goat anti-human IL-6 (200 ng/ml) was used as the detection antibody. Culture media were incubated with capture antibody (in 96 well) for 2 h at room temperature. Wells were washed three times with wash buffer (0.05% tween-20 in phosphate buffered saline (PBS) pH 7.4) followed by incubation with detection antibody for 2 h at room temperature. Following three washes wells were incubated with Streptavidin-HRP for 20 min. Color development was read at 450 nm in a Microplate reader.
On the technique in general: ELISA stands for enzyme-linked immunosorbent assay.

Where [1] appears, read: Table 5, first part, class = % of control IL6 production, read-out: Inhibition of TNF-induced IL6 production.
Where [2] appears, read: Table 5, second part, column 1, class = % of control IL6 production, read-out: Inhibition of TNF-induced IL6, production.
The mark [3] stands for this setting: read-out: Inhibition of TNF-induced IL6 production.
The mark [4] stands for this setting: 10 uM compound, TNF stimulation = 100%.
The mark [5] stands for this setting: read-out: Inhibition of TNF-induced IL6 production, Table 7, first part.
Setting [6] is: read-out: Inhibition of TNF-induced IL6 production, Table 7, second part, column 1.
Setting [7] is: Table 7, first part, read-out: Inhibition of TNF-induced IL6 production.

The values below come from patent publication US7332489B2, “Methods and compositions of novel triazine compounds” (Reddy US Therapeutics, Inc., priority 2003, dated 2008).

Counter-ions that a name gives are not always drawn. Like-named read-outs stand apart in the source and are kept apart here.

For `COC[C@@H]1CCCN1c1nc(Nc2ccc(OC)c(F)c2)nc(NC2CCCCCC2)n1` [Compound 86, N^2-cycloheptyl-N^4-(3-fluoro-4-methoxyphenyl)-6-[(2S)-2-(methoxymethyl)-1-pyrrolidinyl]-1,3,5-triazine-2,4-diamine], under setting [1], the activity at 10 µM was in the range of 0 to 25%. On to `COc1ccc(Nc2nc(NC3CCCCCC3)nc(N3CCN(C)CC3)n2)cc1F` [Compound 87, N^2-cycloheptyl-N^4-(3-fluoro-4-methoxyphenyl)-6-(4-methyl-1-piperazinyl)-1,3,5-triazine-2,4-diamine], for which, under setting [2], the activity at 10 µM fell in the range of 0 to 25%. Turning to `COc1ccc(Nc2nc(NC3CCCCCC3)nc(N3CCN(C(C)=O)CC3)n2)cc1F` [Compound 88, 6-(4-acetyl-1-piperazinyl)-N^2-cycloheptyl-N^4-(3-fluoro-4-methoxyphenyl)-1,3,5-triazine-2,4-diamine], the activity at 10 µM under setting [1] lay in the range of 0 to 25%. On the same count and under the same terms, next, `COc1ccc(Nc2nc(NCc3ccco3)nc(NC3CCCCCC3)n2)cc1F` [Compound 91, N^2-cycloheptyl-N^4-(3-fluoro-4-methoxyphenyl)-N^6-(2-furanylmethyl)-1,3,5-triazine-2,4,6-triamine]: 25 to 50%.

For `COc1ccc(Nc2nc(NC3CCCCCC3)nc(N3CCN(CC(=O)N4CCCC4)CC3)n2)cc1F` [Compound 94, N^2-cycloheptyl-N^4-(3-fluoro-4-methoxyphenyl)-6-{4-[2-oxo-(1-pyrrolidinyl)ethyl]-1-piperazinyl}-1,3,5-triazine-2,4-diamine], the activity at 10 µM under setting [1] fell in the range of 25 to 50% and the activity at 10 µM under setting [2] was 0 to 25%. Turning to `CCN1CCCC1CNc1nc(Nc2ccc(OC)c(F)c2)nc(NC2CCCCCC2)n1` (stereo not drawn) [Compound 95, N^2-cycloheptyl-N^4-[(1-ethyl-2-pyrrolidinyl)methyl]-N^6-(3-fluoro-4-methoxyphenyl)-1,3,5-triazine-2,4,6-triamine], the activity at 10 µM runs as follows: (read-out: Inhibition of TNF-induced IL6, production) 0 to 25%; under setting [3], 0 to 25%. In the case of `COc1ccc(Nc2nc(NCCN3CCCCC3)nc(NC3CCCCCC3)n2)cc1F` [Compound 96, N^2-cycloheptyl-N^4-(3-fluoro-4-methoxyphenyl)-N^6-[2-(1-piperidinyl)ethyl]-1,3,5-triazine-2,4,6-triamine], the activity at 10 µM under setting [1] is 0 to 25%.

For `COc1ccc(Nc2nc(NCCCN3CCCC3=O)nc(NC3CCCCCC3)n2)cc1F` [Compound 99, 1-[3-({4-(cycloheptylamino)-6-[(3-fluoro-4-methoxyphenyl)amino]-1,3,5-triazin-2-yl}amino)propyl]-2-pyrrolidinone], the activity at 10 µM runs as follows: under setting [1], 25 to 50%; under setting [2], 0 to 25%.

For `COc1ccc(Nc2nc(NCCCn3ccnc3)nc(NC3CCCCCC3)n2)cc1F` [Compound 100, N^2-cycloheptyl-N^4-(3-fluoro-4-methoxyphenyl)-N^6-[3-(1H-imidazol-1-yl)propyl]-1,3,5-triazine-2,4,6-triamine], the activity at 10 µM under setting [2] lay within 0 to 25%.

Regarding `COc1ccc(Nc2nc(NCCCCCO)nc(N(C)C3CCN(C)CC3)n2)cc1Cl` [Compound 108, 5-{4-(3-Chloro-4-methoxy-phenylamino)-6-[methyl-(1-methyl-piperidin-4-yl)-amino]-[1,3,5]triazin-2-ylamino}-pentan-1-ol], the activity at 10 µM runs as follows: (read-out: % IL6 production compare to TNF stimulation of IL6 (100%), Compds tested @ 10 uM HAEC, IL6) 25%; under setting [3], 25 to 50%. For `COc1ccc(Nc2nc(Cl)nc(NC3CCCCCC3)n2)cc1F` [Compound 127, 6-Chloro-N-cycloheheptyl-N′-(3-fluoro-4-methoxy-phenyl)-[1,3,5]triazine-2,4-diamine], the activity at 10 µM under setting [1] lay within 25 to 50%. In the case of `CCN1CCC[C@H]1CNc1nc(NCC2CCCCC2)nc(Nc2ccc(OC)c(F)c2)n1` [Compound 141, N^2-cyclohexylmethyl-N^4-((S)-1-ethyl-pyrrolidin-2-ylmethyl)-N^6-(3-fluoro-4-methoxyphenyl)-1,3,5-triazine-2,4,6-triamine], the “% IL6 production compare to TNF stimulation of IL6 (100%), Compds tested @ 10 uM HAEC, IL6” value under setting [4] was found to be 23.44%. In addition, the activity at 10 µM under setting [1] lay within 0 to 25%. For `CCN1CCC[C@@H]1CNc1nc(NCC2CCCCC2)nc(Nc2ccc(OC)c(F)c2)n1` [Compound 142, N^2-cyclohexylmethyl-N^4-((R)-1-ethyl-pyrrolidin-2-ylmethyl)-N^6-(3-fluoro-4-methoxyphenyl)-1,3,5-triazine-2,4,6-triamine] the same measures were 21.62% and 0 to 25%.

As for `CCN1CCC[C@H]1CNc1nc(NC2CCCCCC2)nc(N(CC#N)c2ccccc2)n1` [Compound 143, ({4-cycloheptylamino-6-[((S)-1-ethyl-pyrrolidin-2-ylmethyl)-amino]-1,3,5-triazin-2-yl}-phenyl-amino)-acetonitrile], the “% IL6 production compare to TNF stimulation of IL6 (100%), Compds tested @ 10 uM HAEC, IL6” value under setting [4] stood at 18.88%. Further, under setting [1], the activity at 10 µM lay in the range of 0 to 25%. Take `CCN1CCC[C@@H]1CNc1nc(NC2CCCCCC2)nc(N(CC#N)c2ccccc2)n1` [Compound 144, ({4-cycloheptylamino-6-[((R)-1-ethyl-pyrrolidin-2-ylmethyl)-amino]-1,3,5-triazin-2-yl}-phenyl-amino)-acetonitrile]: the activity at 10 µM under setting [1] was in the range of 0 to 25%. With `COc1ccc(Nc2nc(NC3CC3)nc(NC3CC3)n2)cc1F` [Compound 157, N,N′-dicyclopropyl-N″-(3-fluoro-4-methoxy-phenyl)-1,3,5-triazine-2,4,6-triamine], under setting [4], the “% IL6 production compare to TNF stimulation of IL6 (100%), Compds tested @ 10 uM HAEC, IL6” value came to 60.48%. For the same compound, the activity at 10 µM under setting [1] lay in the range of 50 to 75%. Regarding `COc1ccc(Nc2nc(NC3CCCCCC3)nc(N(C)C3CCN(C)CC3)n2)cc1F` [Compound 168, N^2-cycloheptyl-N^4-(3-fluoro-4-methoxy-phenyl)-N^6-methyl-N^6-(1-methyl-piperidin-4-yl)-1,3,5-triazine-2,4,6-triamine citrate salt], for the setting “TNF stimulated, citrate salt”, the “% IL6 production compare to TNF stimulation of IL6 (100%), HAEC, IL6, @ 5 uM” value is recorded as 40%. Besides, the “% IL6 production compare to TNF stimulation of IL6 (100%), Compds tested @ 10 uM HAEC, IL6” value (TNF stimulated, compound 10 uM) is listed as “total cell death”. Regarding `COc1ccc(Nc2nc(NC3CCCCCC3)nc(N(C)C3CCN(C)CC3)n2)cc1F` [Compound 169, N^2-cycloheptyl-N^4-(3-fluoro-4-methoxy-phenyl)-N^6-methyl-N^6-(1-methyl-piperidin-4-yl)-1,3,5-triazine-2,4,6-triamine succinate salt], the “% IL6 production compare to TNF stimulation of IL6 (100%), HAEC, IL6, @ 5 uM” value (TNF stimulated, succinate salt) came to 45%.

As for `COc1ccc(Nc2nc(NC3CCCCCC3)nc(N(C)C3CCN(C)CC3)n2)cc1F` [Compound 171, N-Cycloheptyl-N′-(3-fluoro-4-methoxy-phenyl)-N″-methyl-N″-(1-methyl-piperidin-4-yl)-[1,3,5]tri-azine-2,4,6-triamine], the inhibition (in general, the share of the control response that was lost under treatment) at 10 µM lay in the range of 85 to 100% under setting [5] and 65 to 85% under setting [6]. Besides, the “% IL6 production compare to TNF stimulation of IL6 (100%), Compds tested @ 10 μM HAEC, IL6” value (TNF stimulation = 100%) was 21%. For `CN1CCC(N(C)c2nc(Nc3ccc4ccccc4c3)nc(NC3CCCCCC3)n2)CC1` [Compound 172, N-Cycloheptyl-N′-methyl-N′-(1-methyl-piperidin-4-yl)-N″-naphthalen-2-yl-[1,3,5]tri-azine-2,4,6-triamine] the same measures were 85 to 100%, 65 to 85% and 18%.

As for `COc1ccc(Nc2nc(N3CCOCC3)nc(N3CCN(Cc4ccccc4)CC3)n2)cc1` [Compound 173, [4-(4-Benzyl-piperazin-1-yl)-6-morpholin-4-yl-[1,3,5]tri-azin-2-yl]-(4-methoxy-phenyl)-amine], the inhibition at 10 µM under setting [7] was in the range of 65 to 85%.

Take `c1ccc2cc(Nc3nc(NC4CCCCCC4)nc(N4CCOCC4)n3)ccc2c1` [Compound 174, N-Cycloheptyl-6-morpholin-4-yl-N′-naph-thalen-2-yl-[1,3,5]triazine-2,4-diamine]: the inhibition at 10 µM under setting [7] was in the range of 85 to 100%. The same measure, in the same setting: next, `COc1ccc(Nc2nc(NC3CCCCCC3)nc(N3CCOCC3)n2)cc1F` [Compound 175, N-Cycloheptyl-N′-(3-fluoro-4-methoxy-phenyl)-6-morpholin-4-yl-[1,3,5]triazine-2,4-di-amine]: 85 to 100%; `c1ccc(Nc2nc(NC3CCCCCC3)nc(N3CCOCC3)n2)cc1` [Compound 176, N-Cycloheptyl-6-morpholin-4-yl-N′-phenyl-[1,3,5]tri-azine-2,4-diamine]: 85 to 100%. `COc1ccc(Nc2nc(NC3CCCCCC3)nc(N3CCOCC3)n2)cc1` [Compound 177, N-Cycloheptyl-N′-(4-methoxy-phenyl)-6-mor-pholin-4-yl-[1,3,5]triazine-2,4-diamine]: the inhibition at 10 µM under setting [7] fell in the range of 85 to 100% and the inhibition at 10 µM (Table 7, second part, column 1, read-out: Inhibition of TNF-induced IL6 production) lay within 65 to 85%.
